Results: US10815246B2, “Thailanstatin analogs” (priority 2017, dated 2020)
Like-named read-outs stand apart in the source and are kept apart here.

Key:
Assay type in all cases: cell-based
[1] = tested on: HCT 116 cells; assay: In vitro cytotoxicity, CellTiter-Glo, 72 h (Example 11)
Procedure: Alternatively, the in vitro cytotoxicity of the compounds of the invention may be measured as described in this example. 180 μl of HCT 116 cells (ATCC, Cat # CCL-247) in McCoy's 5a Medium Modified (Sigma-Aldrich®, St. Louis, Mo.)+10% fetal bovine serum were seeded at a density of 5,000 cells/well in a white opaque 96-well plate and incubated for 24 hours at […] in a 5% CO2 incubator. Twenty-four hours post cell seeding, 20 μl of 100× test compounds were diluted such that the final concentrations of the test compounds were in μM concentration. Half log dilutions were used, starting from 10 μM through 0.0001 μM. Puromycin and […]. The cells were incubated with the compounds for 72 hours at […] in a 5% CO2 incubator. After 72 hrs, 100 μl/well of CellTiter-Glo® Luminescent Cell Viability Assay reagent (Promega, Inc., Madison, Wis.; Cat. # G7573) was added to the plates and incubated at room temperature for 30 minutes. The luminescence signals were captured using EnVision 2105 Multimode Plate Reader (PerkinElmer, Waltham, Mass.). The data were analyzed using non-linear regression curve fit (sigmoidal dose response) in GraphPad Prism software (GraphPad Software, La Jolla, Calif.) by plotting the concentration of drug on the X-axis and the mean % inhibition values on the Y-axis.

[2] = tested on: PANC 05.04; assay: In vitro cytotoxicity on pancreatic cancer cell line (Example 12); conditions: PANC 05.04 human pancreatic cancer cell line
[3] = tested on: PANC 10.05; assay: as above; conditions: PANC 10.05 human pancreatic cancer cell line
[4] = tested on: SW480; assay: In vitro cytotoxicity of toxin compounds, CellTiter-Glo, three days (Example 12); conditions: Homo sapiens, 72 h
Procedure: (§1) Various cancer cell lines were obtained from the American Type Culture Collection (ATCC®). The cells were cultured in a humidified 5% CO2 incubator in a media consisting of RPMI 1640, L-glutamine, and 10% FBS. The cells were passaged as needed using standard tissue culture techniques. The cells were harvested and plated out into 96-well tissue culture treated plates at a density of 5000 cells per well. After allowing the cells to equilibrate for ˜24 hr in a humidified 5% CO2 incubator, the cells were treated with the test compounds at the indicated concentrations. The cells were exposed to the test compounds for three days with no media change. After the treatment period, CellTiter-Glo® Luminescent Cell Viability Assay reagent solution (Promega, Inc., Madison, Wis.; Cat. # G7573) was introduced to each well. The Cell TiterGlo-containing plates were then read on a SpectroMax® iD3 Multi-Mode Microplate reader (Molecular Devices, LLC, San Jose, Calif.). The degree of luminescence was dictated by the abundance of live cells.
(§2) The following tables summarize the cytotoxicity (IC50), nM, observed for the specified toxin compounds on the indicated cancer cell lines, NCI-H23, DU145, SW480, SKOV3, A549, HT29, SK-MES-1, SKBR3, HCT116, MCF7, N87, and A431 (ATCC designations).

[5] = tested on: A431; assay: as above; conditions: Homo sapiens, A-431, 72 h
Procedure: as §1, §2

[6] = tested on: NCI-H23; assay: as above; conditions: Homo sapiens, 72 h
Procedure: as §1, §2

[7] = tested on: DU145; assay: as above; conditions: Homo sapiens, DU-145, 72 h
Procedure: as §1, §2

[8] = tested on: HCT116; assay: as above; conditions: Homo sapiens, HCT-116, 72 h
Procedure: as §1, §2

[9] = tested on: SKOV3; assay: as above; conditions: Homo sapiens, SK-OV-3, 72 h
Procedure: as §1, §2

[10] = tested on: MCF7; assay: as above; conditions: Homo sapiens, 72 h
Procedure: as §1, §2

[11] = tested on: HT29; assay: as above; conditions: Homo sapiens, HT-29, 72 h
Procedure: as §1, §2

[12] = tested on: SK-MES-1; assay: as above; conditions: Homo sapiens, 72 h; SK-MES-1, three days
Procedure: as §1, §2

[13] = tested on: SKBR3; assay: as above; conditions: Homo sapiens, SK-BR-3, 72 h
Procedure: as §1, §2

[14] = tested on: A549; assay: as above; conditions: Homo sapiens, 72 h
Procedure: as §1, §2

[15] = tested on: N87; assay: as above; conditions: 72 h
Procedure: as §1, §2

[16] = tested on: NCI-H69; assay: In vitro cytotoxicity of toxin compounds (Example 12, Table 4); conditions: Homo sapiens
Procedure: as §1
(§3) Table 4 gives the cytotoxicity data for Compounds 2, 4, and 6 on the indicated cancer cell lines, HL60, KG-1, NCI-H69, SK-MEL-1, HEL-92.1.7, and K562 (ATCC designations).

[17] = tested on: HEL-92.1.7; assay: as above; conditions: Homo sapiens
Procedure: as §1, §3

[18] = tested on: SK-MEL-1; assay: as above; conditions: Homo sapiens
Procedure: as §1, §3

[19] = tested on: K562; assay: as above; conditions: Homo sapiens
Procedure: as §1, §3

[20] = tested on: HL60; assay: as above; conditions: Homo sapiens, HL-60
Procedure: as §1, §3

COc1ccc(C[C@H](N)C(=O)N[C@H]2[C@@H](O)[C@H](n3cnc4c(N(C)C)ncnc43)O[C@@H]2CO)cc1 [Puromycin, reference compound] gave an IC50 ([1]; Homo sapiens, HCT 116 cells, 72 hours, read-out: IC50) of roughly 250 nM.

In the case of COC(=O)C[C@@H]1C[C@@]2(CO2)[C@H](O)[C@@H](/C=C/C(C)=C/C[C@@H]2O[C@H](C)[C@H](NC(=O)/C=C\C(C)COC3(C)COC3)C[C@@H]2C)O1 (stereo partly drawn) [Compound 7, Methyl 2-((3R, 5S, 7R, 8R)-7-((1E, 3E)-5-((2S, 3S, 5R, 6R)-3,6-dimethyl-5-((Z)-4-methyl-5-((3-methyloxetan-3-yl)oxy)pent-2-enamido)tetrahydro-2H-pyran-2-yl)-3-methylpenta-1,3-dien-1-yl)-8-hydroxy-1,6-dioxaspiro[2.5]octan-5-yl)acetate], the IC50 ([1]; Homo sapiens, HCT-116, 72 h) is reported as 300 nM, the IC50 [2] is reported as 22 nM and the IC50 ([3]; Panc1005) is reported as 98.4 nM.

COC(=O)C[C@@H]1C[C@@]2(CO2)[C@H](O)[C@@H](/C=C/C(C)=C/C[C@@H]2O[C@H](C)[C@H](NC(=O)/C=C\C(C)c3noc(C)n3)C[C@@H]2C)O1 (stereo partly drawn) [Compound 6, Methyl 2-((3R, 5S, 7R, 8R)-7-((1E, 3E)-5-((2S, 3S, 5R, 6R)-3,6-dimethyl-5-((Z)-4-(5-methyl-1,2,4-oxadiazol-3-yl)pent-2-enamido)tetrahydro-2H-pyran-2-yl)-3-methylpenta-1,3-dienyl)-8-hydroxy-1,6-dioxaspiro[2.5]octan-5-yl)acetate] was tested, and the IC50 ([1]; Homo sapiens, HCT-116, 72 h) was 20 nM, the IC50 [2] was 7 nM and the IC50 ([3]; Panc1005) was 10.3 nM. The IC50 [4] was 2.7 nM, the IC50 [5] was 1.8 nM and the IC50 [6] was 0.4 nM. It also gave an IC50 [7] of 3.3 nM, an IC50 [8] of 2 nM and an IC50 [9] of 9.7 nM. For the same compound, the IC50 [10] was 3.8 nM, the IC50 [11] was 2.7 nM and the IC50 [12] was 9.3 nM. For the same compound, the IC50 [13] was 12.3 nM, the IC50 [14] was 4.8 nM and the IC50 [15] was 1.4 nM. The IC50 [16] was 0.21 nM, the IC50 [17] was 0.03 nM and the IC50 [18] was 0.78 nM. It also gave an IC50 [19] of 0.09 nM and an IC50 [20] of 0.04 nM.

Compound COC(=O)C[C@@H]1C[C@@]2(CO2)[C@H](O)[C@@H](/C=C/C(C)=C/C[C@@H]2O[C@H](C)[C@H](NC(=O)/C=C\C(C)c3cc(OC)no3)C[C@@H]2C)O1 (stereo partly drawn) [Compound 5, Methyl 2-((3R, 5S, 7R, 8R)-8-hydroxy-7-((1E, 3E)-5-((2S, 3S, 5R, 6R)-5-((Z)-4-(3-methoxyisoxazol-5-yl)pent-2-enamido)-3,6-dimethyltetrahydro-2H-pyran-2-yl)-3-methylpenta-1,3-dienyl)-1,6-dioxaspiro[2.5]octan-5-yl)acetate] has an IC50 ([1]; HCT 116 cells, 72 hours, read-out: IC50) of 310 nM, an IC50 [2] of 12 nM and an IC50 [3] of 19.9 nM.
